Series [1] deals with ARPE-19 cells. Kind of series: Lysosomal pH (pHL) with LysoSensor Yellow/Blue, high through-put screen. It counts as cell-based, human. The settings on record: for effect on pHL, agent alone: cells without other alkalinizing agent, NH4Cl 10 mM, BAF 200 nM, CHQ 20 μM, CFTR-172 10 μM, LDL 10 μg/ml, others not given. As for the experimental part:
Lysosensor Yellow/Blue co-localized with the Lysotracker Red dye in small vesicles, with a distribution consistent with lysosomal origin. Measurements of pHL were performed using a high throughput screening (HTS) protocol to maximize output and minimize variation using ARPE-19 cells in 96 well plates. […] Loading for 5 min. at 23° C. with 5 μM lysosensor, followed by 15 min. for internalization, produced stable and reproducible results.
The ratio was converted to pH by calibrating with KCl buffered to pH 4.0-6.0 in the presence of monensin and nigericin. Calibration indicated a baseline pH of 4.4 to 4.5, supporting lysosomal localization. […] NH4Cl decreased the ratios slightly at 380 nm. Nevertheless, absent the addition of the dye, none of these compounds, or any others, altered the fluorescent signal at 340 or 380 nm, showing a specificity of the measured change to pHL. […] This quantification is necessary to predict the potential effectiveness of acidifying drugs to restore lysosomal enzyme activity.
Extensive trials determined that the optimal response is obtained with 5 minute dye loading and 15 minute post-incubation. […] All reagents were from Sigma Chemical Corp. unless otherwise indicated.
In general, each condition below used 3-12 independent wells per plate, in 3-6 separate plates. As levels from individual plates varied, data was normalized to the mean pHL for control wells from each plate. Fluorescent ratios were converted to pH following calibration performed on each plate as described. Incubation with Lysosensor Yellow/Blue was kept constant and all measurements were performed 15 min after removal of dye from the bath to ensure continuity. Significance was determined with a one-way ANOVA and Tukey post test. Drugs were always tested on control cells to ensure modification of healthy RPE cells was minimal, and cells were not exposed to dye to make sure effects were specific. All background was subtracted from the fluorescence excited at 340 and 380 nm independently before calculation of the ratio.

Series [2] deals with ARPE-19 cells. The series is described as follows: Toxicity of A2E to cultured cells. Type of series: cell-based, human. The settings on record: A2E 100 nM, over a period of 1-2 weeks. Here is the method: Holz and colleagues previously reported A2E responses, but the increase in pHL required four weeks of feeding the cells with A2E (14 nM) every 3-4 days, and the A2E was complexed to low-density lipoprotein (LDL; 10 μg/ml) (Holz et al., supra, 1999). […] To reduce the lengthy time course, higher concentrations of A2E (100 nM) were tested, but the cells were killed over a period of 1-2 weeks. Therefore, alternative methods were needed to permit timely testing of the effect of pH on lysosomal activity in the RPE cells.

The conditions of series [3]: NH4Cl 10 mM.
Protocol: Isolation of Lysosomes: ARPE-19 cells were detached with 0.25% trypsin, centrifuged at 1000 rpm for 5 minutes, and resuspended in 0.25M sucrose with 5 mM ATP in 10 mM Tris buffer (pH 7.4 with HCl). After homogenization, samples were spun at 1000×g (10 min). The supernatant was centrifuged (20,000×g, 10 min) and the pellet was resuspended in a 0.25 M sucrose buffer with 8 mM CaCl2 in Tris-HCl buffer (pH 7.4) to lyse mitochondria (15 min, 35° C.). […] After isolation, lysosomes were diluted 1:10 in a 150 mM KCl solution in Tris-HCl (pH 7.4) and pelleted at 25,000×g. The pellet was then resuspended in 5 μM Lysosensor dye. Cells were washed 2× by centrifugation (25,000×g, 15 min), resuspended in test or control solutions including 5 mM MgATP, plated into a 96 well plate (50 μl/well) and the pH was measured as above.
Series [4] has as its system Cathepsin-D activity in ARPE-19 cells. The series is described as follows: Cathepsin-D activity monitored with a fluorescent reporter. It counts as cell-based, human. The settings on record: addition of BzATP. An excerpt:
In FIG. 13C, it is shown that BzATP reduced lysosomal enzyme activity. […] Cathepsin D is the major lysosomal protease responsible for degrading photoreceptors in the RPE, and thus changes to cathepsin D activity reflect the ability of the lysosomes to successfully degrade (dispose of) phagocytosed outer segments. […] Consequently, by applying exogenous antagonists to the P2X7 and P2Y12 receptors (i.e., P2X7 receptor-antagonist, and/or P2Y12 receptor-antagonist), the resulting pH elevation by endogenously released ATP is inhibited or prevented, thereby enhancing degradation of the metabolic waste by the lysosomes, reducing autofluorescent lipofuscin accumulation, and thus reducing the onset or progression of AMD.

Series [5] concerns LC3BII and p62 in ARPE-19 cells. The series is described as follows: Western blot of autophagy markers. Type of series: cell-based, human. Conditions: Western blot quantification. The source says: While the RPE cells must degrade phagocytosed outer segments, they must also degrade and dispose of their own waste material through a process termed autophagy. The ability of P2X7 receptor stimulation to rapidly raise levels of autophagy markers LC3BII and p62 are consistent with the effects of raising lysosomal pH, for they imply that lysosomal alkalinization prevents the RPE cell from degrading material from autopagic vesicles containing p62 or tagged with LC3BII. (See, Kabeya, Y., et al., “LC3, a mammalian homolog of yeast Apg8p, is localized in autophagosome membranes after processing.” EMBO J., 22:[…] (2003); Moscat, J. and Diaz-Meco, M. T. (2009) “p62 at the Crossroads of Autophagy, Apoptosis, and Cancer,” Cell 137:1001-1004 (2009)).

The source of these data is patent US8828966B2, “Method for treatment of macular degeneration by modulating P2Y12 or P2X7 receptors” (priority 2006, dated 2014).

Turning to `CC(C=CC1=C(C)CCCC1(C)C)=CC=CC(C)=Cc1cc(C=CC=C(C)C=CC2=C(C)CCCC2(C)C)cc[n+]1CCO` [A2E, N-retinylidene-N-retinylethanolamine], the “increase in pHL” value in the series on ARPE-19 cells [1] (ARPE-19 cells, A2E (14 nM) fed for 4 weeks) was 0.4 units. For the same molecule, in the series on ARPE-19 cells [2], the cell killing entry is on record as “killed”.
As to `Cl.N` [NH4Cl], the “effect on pHL, agent alone” value in the series with ARPE-19 cells [1] is reported as “pH was elevated”. Moreover, the “340/380 ratio in isolated lysosomes” value in series [3] is listed as “increased the 340/380 ratio”.
Turning to BzATP, in the series with ARPE-19 cells [1], the “effect on pHL, agent alone” value is “elevation of the lysosomal pHL”. Besides, the Cathepsin-D activity result in series [4] is recorded as “visibly decreased”. Besides, in series [5], the LC3BII level result is “rapid increases” and the p62 level entry is on record as “rapid increases”.
